Assay results reported in patent US11844794B2, “Pharmaceutical compositions” (ADEPTIO PHARMACEUTICALS LIMITED, priority 2017, dated 2023).

What was measured:
[1] = moisture-sorption analysis; format: physicochemical; settings: for moisture uptake: 25° C.
Method: Moisture-sorption analysis was carried out using a Hiden IGA Sorp moisture-sorption analyser. […] The sample was then subjected to an isothermal (at 25° C.) adsorption scan from 40 to 90% relative humidity in steps of 10%. The sample was allowed to equilibrate to an asymptotic weight at each point for a maximum of four hours. […] An adsorption scan was then performed from 0 to 40% relative humidity inn steps of 10%. The sample was dried for two hours at 60° C. and 0% relative humidity, and the resulting solid was analysed by XRPD.

[2] = equilibrium aqueous solubility by HPLC; format: physicochemical; settings: water, thermodynamic from solid
Method: The aqueous solubilities of salts were measured by an equilibrium method in which an amount of the salt was weighed into a 2 ml vial equipped with a magnetic stirrer bar and water added. In cases where complete dissolution was observed, more material was added until the sample was exhausted. The slurry was then stirred for seven days before isolating the solids by centrifuge-filtration. The solids were analysed by XRPD and the filtrates were analysed by HPLC to determine the amount of (+)-alpha-dihydrotetrabenazine salt in solution. The solubilities were calculated against a calibration curve established for a (+)-alpha-dihydrotetrabenazine sample of known concentration.

[3] = pharmacokinetics after oral administration to male Beagle dogs; format: in vivo, Beagle dog
Method: Doses were administered orally, via gavage, at a dose volume of 2.00 mL/kg yielding the target dose level of 1.50 mg/kg. Following dosing, 10 mL of tap water was flushed down the gavage to ensure the entire dose was dispensed. Following dosing over four sessions each with one of the test materials, serial whole blood samples (circa. 1.3 mL) were collected from a jugular vein then placed into K2 EDTA treated tubes pre-dose and then 0.25, 0.50, 1, 2, 3, 4, 6, 12 and 24 hours post dose. Blood samples were placed immediately on a cool-block before being centrifuged within 15 minutes at 3,000×g, 10 minutes, 4° C. and resultant plasma drawn off. […] Doses were administered orally, via gavage, at a dose volume of 2.00 mL/kg yielding the target dose level of 1.50 mg/kg. Following dosing, 10 mL of tap water was flushed down the gavage to ensure the entire dose was dispensed. Following dosing over four sessions each with one of the test materials, serial whole blood samples (circa. 1.3 mL) were collected from a jugular vein then placed into K2 EDTA treated tubes pre-dose and then 0.25, 0.50, 1, 2, 3, 4, 6, 12 and 24 hours post dose. Blood samples were placed immediately on a cool-block before being centrifuged within 15 minutes at 3,000×g, 10 minutes, 4° C. and resultant plasma drawn off.

[4] = male, Beagle (HsdRcc:DOBE), dog, plasma, po, 1.5 mg/kg, Plasma concentration of (+)-α-dihydrotetrabenazine, Male 1, oral 1.50 mg/kg (freebase equivalent)
[5] = male, Beagle (HsdRcc:DOBE), dog, plasma, po, 1.5 mg/kg, Plasma concentration of (+)-α-dihydrotetrabenazine, Male 2, oral 1.50 mg/kg (freebase equivalent)
[6] = male, Beagle (HsdRcc:DOBE), dog, plasma, po, 1.5 mg/kg, Plasma concentration of (+)-α-dihydrotetrabenazine, Male 3, oral 1.50 mg/kg (freebase equivalent)
[7] = male, Beagle (HsdRcc:DOBE), dog, plasma, po, 1.5 mg/kg, Plasma concentration of (+)-α-dihydrotetrabenazine, Mean of 3 dogs, oral 1.50 mg/kg (freebase equivalent)
[8] = male, Beagle (HsdRcc:DOBE), dog, plasma, po, 1.5 mg/kg, Plasma concentration of (+)-α-dihydrotetrabenazine, Mean of 3 dogs, oral 1.50 mg/kg (freebase equivalent), BLQ treated as zero

SMILES: COc1cc2c(cc1OC)[C@H]1C[C@@H](O)[C@H](CC(C)C)CN1CC2.O=C(O)CCC(=O)O [(+)-α-dihydrotetrabenazine succinate]
- moisture uptake ([1]; 60% relative humidity): 0.6 weight %
- moisture uptake ([1]; 90% relative humidity): 1.3 weight %
- XRPD pattern after moisture sorption studies ([1]; dried at 60° C. and 0% relative humidity): No change
- hygroscopicity ([1]; gravimetric moisture-sorption): slightly hygroscopic
- solubility thermodynamic at 7 days [2]: > 350 mg/mL
- time post dose at which Cmax was observed ([3]; dog, in vivo, po, 1.5 mg/kg): 0.33 h
- mean exposure ([3]; male Beagle dogs, oral 1.50 mg/kg (freebase equivalent)): 71.8782 ng·mL·h
- concentration at 0.25 h [3, 4]: 66.7 ng/mL
- concentration at 0.5 h [3, 4]: 47.6 ng/mL
- concentration at 1 h [3, 4]: 23.4 ng/mL
- concentration at 2 h [3, 4]: 7.04 ng/mL
- concentration at 3 h [3, 4]: 2.48 ng/mL
- concentration at 4 h [3, 4]: 1.03 ng/mL
- concentration at 6 h [3, 4]: 0.304 ng/mL
- concentration at 0.5 h [3, 5]: 32.4 ng/mL
- concentration at 1 h [3, 5]: 14.8 ng/mL
- concentration at 2 h [3, 5]: 3.65 ng/mL
- concentration at 3 h [3, 5]: 1.23 ng/mL
- concentration at 4 h [3, 5]: 0.531 ng/mL
- concentration at 0.5 h [3, 6]: 83.1 ng/mL
- concentration at 1 h [3, 6]: 49.2 ng/mL
- concentration at 2 h [3, 6]: 21.7 ng/mL
- concentration at 3 h [3, 6]: 10.6 ng/mL
- concentration at 4 h [3, 6]: 6.21 ng/mL
- concentration at 6 h [3, 6]: 1.68 ng/mL
- concentration at 12 h [3, 6]: 0.212 ng/mL
- concentration at 0 h ([3]; male, Beagle (HsdRcc:DOBE), dog, plasma, po, 1.5 mg/kg, Plasma concentration of (+)-α-dihydrotetrabenazine, Mean of 3 dogs, oral 1.50 mg/kg (freebase equivalent), 0 h (pre-dose), BLQ treated as zero): 0 ng/mL
- concentration at 0.25 h [3, 7]: 46 ng/mL
- concentration at 0.5 h [3, 7]: 54.4 ng/mL
- concentration at 1 h [3, 7]: 29.1 ng/mL
- concentration at 2 h [3, 7]: 10.8 ng/mL
- concentration at 3 h [3, 7]: 4.77 ng/mL
- concentration at 4 h [3, 7]: 2.59 ng/mL
- concentration at 6 h [3, 8]: 0.66 ng/mL
- concentration at 12 h [3, 8]: 0.07 ng/mL
- concentration at 24 h ([3]; male, Beagle (HsdRcc:DOBE), dog, plasma, po, 1.5 mg/kg, Plasma concentration of (+)-α-dihydrotetrabenazine, Mean of 3 dogs, oral 1.50 mg/kg (freebase equivalent), 24 h, BLQ treated as zero): 0 ng/mL
- Cmax ([3]; male, Beagle, dog, in vivo, po, 1.5 mg/kg): 64.3 ng/mL
